According to a compilation of properties of binary mixtures (doi:10.1016/j.molliq.2017.03.036):

Test: xn = mol fraction of the nth substance listed
Details: 101 kPa

CN(CCO)CCO + CC(=O)[O-].CC[n+]1ccn(C)c1
x2 = 0
Details	electrical conductivity [S/m]	viscosity [mPa·s]
288.15 K	0.0002	137.6
293.15 K	0.0003	101.2
298.15 K	0.0004	74.8
303.15 K	0.0005	57.2
308.15 K	0.0007	43
313.15 K	0.0009	34.1
318.15 K	0.0011	26.1
323.15 K	0.0014	21.6
333.15 K	0.0024	14.19
348.15 K	0.0046	8.13
353.15 K	0.0056	7.09

CC(=O)[O-].CC[n+]1ccn(C)c1 + CN(CCO)CCO
Details	electrical conductivity [S/m]	viscosity [mPa·s]
288.15 K, x1 = 0.1002	0.01	144.1
288.15 K, x1 = 0.2997	0.048	155.8
288.15 K, x1 = 0.4001	0.059	163
288.15 K, x1 = 0.5998	0.075	193
288.15 K, x1 = 0.7003	0.087	203
288.15 K, x1 = 0.7998	0.103	217
288.15 K, x1 = 0.8999	0.124	236
288.15 K, x1 = 1	0.151	288
293.15 K, x1 = 0.1002	0.014	107.2
293.15 K, x1 = 0.2002	0.044	112.8
293.15 K, x1 = 0.2997	0.059	118.3
293.15 K, x1 = 0.4995	0.085	128.7
293.15 K, x1 = 0.5998	0.099	140.6
293.15 K, x1 = 0.7003	0.116	147.3
293.15 K, x1 = 0.7998	0.138	154.8
293.15 K, x1 = 0.8999	0.169	170
293.15 K, x1 = 1	0.201	197
298.15 K, x1 = 0.1002	0.019	80.3
298.15 K, x1 = 0.2002	0.054	85.1
298.15 K, x1 = 0.2997	0.073	88.7
298.15 K, x1 = 0.4001	0.089	93.2
298.15 K, x1 = 0.5998	0.13	106.5
298.15 K, x1 = 0.7003	0.152	110.8
298.15 K, x1 = 0.7998	0.184	114.1
298.15 K, x1 = 0.8999	0.227	127.2
298.15 K, x1 = 1	0.278	140
303.15 K, x1 = 0.1002	0.025	60.8
303.15 K, x1 = 0.2997	0.091	68.6
303.15 K, x1 = 0.4001	0.115	71.9
303.15 K, x1 = 0.4995	0.148	75.7
303.15 K, x1 = 0.7003	0.204	83.8
303.15 K, x1 = 0.7998	0.242	86.6
303.15 K, x1 = 0.8999	0.295	95.8
308.15 K, x1 = 0.1002	0.032	47.2
308.15 K, x1 = 0.2002	0.079	50.7
308.15 K, x1 = 0.2997	0.11	53.3
308.15 K, x1 = 0.4001	0.143	56.1
308.15 K, x1 = 0.4995	0.185	59.9
308.15 K, x1 = 0.5998	0.217	64.3
308.15 K, x1 = 0.7003	0.271	65.4
308.15 K, x1 = 0.7998	0.315	66.8
308.15 K, x1 = 1	0.461	78.3
313.15 K, x1 = 0.1002	0.04	37.2
313.15 K, x1 = 0.2002	0.093	40.3
313.15 K, x1 = 0.2997	0.134	42.9
313.15 K, x1 = 0.4001	0.175	45
313.15 K, x1 = 0.5998	0.273	51.7
313.15 K, x1 = 0.8999	0.486	58.1
313.15 K, x1 = 1	0.585	60.4
318.15 K, x1 = 0.2002	0.112	32
318.15 K, x1 = 0.2997	0.163	34.3
318.15 K, x1 = 0.4001	0.215	36.4
318.15 K, x1 = 0.4995	0.28	39.7
318.15 K, x1 = 0.5998	0.342	41.3
318.15 K, x1 = 0.7998	0.505	43.7
323.15 K, x1 = 0.2002	0.132	26.1
323.15 K, x1 = 0.2997	0.194	27.3
323.15 K, x1 = 0.4001	0.259	29.8
323.15 K, x1 = 0.4995	0.344	32.7
323.15 K, x1 = 0.5998	0.423	33.9
323.15 K, x1 = 0.7003	0.519	35.1
323.15 K, x1 = 0.7998	0.624	35.9
323.15 K, x1 = 0.8999	0.736	38.3
328.15 K, x1 = 0.2002	0.157	21.4
328.15 K, x1 = 0.2997	0.23	22.8
328.15 K, x1 = 0.4001	0.311	25
328.15 K, x1 = 0.7003	0.628	28.7
328.15 K, x1 = 0.7998	0.763	29.4
328.15 K, x1 = 0.8999	0.886	30.8
328.15 K, x1 = 1	1.06	31.2
333.15 K, x1 = 0.1002	0.09	15.76
333.15 K, x1 = 0.2002	0.184	17.9
333.15 K, x1 = 0.2997	0.273	19.4
333.15 K, x1 = 0.4001	0.371	20.6
333.15 K, x1 = 0.4995	0.495	22
333.15 K, x1 = 0.5998	0.628	23
333.15 K, x1 = 0.7003	0.755	23.8
333.15 K, x1 = 0.7998	0.909	24.5
338.15 K, x1 = 0.1002	0.108	13
338.15 K, x1 = 0.2002	0.215	14.46
338.15 K, x1 = 0.2997	0.322	16.9
338.15 K, x1 = 0.4001	0.437	17.3
338.15 K, x1 = 0.4995	0.583	18.7
338.15 K, x1 = 0.5998	0.742	19.3
338.15 K, x1 = 0.7003	0.896	19.9
338.15 K, x1 = 0.7998	1.08	20.5
338.15 K, x1 = 0.8999	1.25	21.1
338.15 K, x1 = 1	1.47	21.8
343.15 K, x1 = 0.1002	0.126	10.85
343.15 K, x1 = 0.2002	0.249	12.19
343.15 K, x1 = 0.2997	0.377	14.5
343.15 K, x1 = 0.4995	0.684	16.1
343.15 K, x1 = 0.5998	0.882	16.6
343.15 K, x1 = 0.7003	1.05	17.3
343.15 K, x1 = 0.7998	1.26	17.7
343.15 K, x1 = 0.8999	1.46	18.2
343.15 K, x1 = 1	1.71	18.8
348.15 K, x1 = 0.1002	0.148	9.17
348.15 K, x1 = 0.2002	0.287	10.36
348.15 K, x1 = 0.2997	0.441	12.49
348.15 K, x1 = 0.4001	0.605	12.74
348.15 K, x1 = 0.5998	1.04	14.22
348.15 K, x1 = 0.7003	1.22	14.67
348.15 K, x1 = 0.7998	1.46	15.22
348.15 K, x1 = 0.8999	1.68	15.69
348.15 K, x1 = 1	1.96	16.01
353.15 K, x1 = 0.1002	0.172	8.38
353.15 K, x1 = 0.2997	0.511	10.86
353.15 K, x1 = 0.4001	0.7	11.03
353.15 K, x1 = 0.4995	0.919	12.24
353.15 K, x1 = 0.7003	1.42	13.06
353.15 K, x1 = 0.8999	1.93	13.8
353.15 K, x1 = 1	2.22	14.07
